In publication PMC10053865 (2023):

Columns and labels:
[1] = system: Cocaine aptamer (ITO-supported sensor) (DNA, aptamer) GACAAGGAAAATCCTTCAACGAAGTGGGTC; experiment: square-wave voltammetry (60 Hz), Hill fit; settings: 137 mM NaCl, 2.7 mM KCl; 1x PBS pH 7.4, 23 °C; apparent; procaine hydrochloride
[2] = system: Cocaine aptamer (Au-supported sensor) (DNA, aptamer) GACAAGGAAAATCCTTCAACGAAGTGGGTC; experiment: square-wave voltammetry (80 Hz), Hill fit; settings: 137 mM NaCl, 2.7 mM KCl; 1x PBS pH 7.4, 23 °C; apparent; procaine hydrochloride

KD-ITO [1]: 6.2 ± 0.6 mM | KD-Au [2]: 63.7 ± 9.3 mM
Compound: CCN(CC)CCOC(=O)c1ccc(N)cc1
